# Values joined by “and” are separate entries in the source; they are usually repeats but may differ in a detail not shown here. Identical values can stand only once.
# How the values were obtained:
# Meloidogyne incognita = experiment: Meloidogyne test (nematicidal action, gall formation on lettuce roots); type: in vivo; details: single active compound
# Description: (§1) The expected action for a given combination of two active compounds can be calculated as follows (cf. Colby, S. R., “Calculating Synergistic and Antagonistic Responses of Herbicide Combinations”, Weeds 15 (1967), 20-22):
# (§2) If • X is the efficacy or kill rate, expressed as a percentage of the untreated control, when employing active compound A in a concentration of m ppm, • Y is the efficacy or kill rate, expressed as a percentage of the untreated control, when employing active compound B in a concentration of […] and • E is the efficacy or kill rate, expressed as a percentage of the untreated control, when employing active compounds A and B in a concentration of m and n ppm,
# (§3) If the actual fungicidal or nematicidal, insecticidal and/or acaricidal action exceeds the calculated value, the action of the combination is superadditive, i.e. a synergistic effect is present. In this case, the actually observed efficacy or kill rate must exceed the value calculated using the above formula for the expected efficacy (E).
# Solvent: 7 parts by weight of dimethylformamide
# Emulsifier: 2 parts by weight of alkylaryl polyglycol ether
# To produce a suitable preparation of active compound, 1 part by weight of active compound is mixed with the stated amounts of solvent and emulsifier, and the concentrate is diluted with water to the desired concentration.
# Vessels are filled with sand, solution of active compound, Meloidogyne incognita egg/larvae suspension and lettuce seeds. The lettuce seeds germinate and plants develop. On the roots, galls are formed.
# After the desired period of time, the nematicidal action is determined in % by the formation of galls. 100% means that no galls have been found; 0% means that the number of galls on the treated plants corresponds to that of the untreated control. The determined kill rates are inserted into Colby's formula.
# [1] = test system: Plutella xylostella, sensitive strain; experiment: Plutella test, sensitive strain (insecticidal action, dipped cabbage leaves); type: in vivo; details: 100 ppm, single active compound
# Description: as §1, §2, §3
# Solvent: 7 parts by weight of dimethylformamide […]
# Cabbage leaves (Brassica oleracea) are treated by being dipped into the preparation of active compound of the desired concentration and are populated with caterpillars of the diamondback moth (Plutella xylostella, sensitive strain) while the leaves are still moist. After the desired period of time, the kill in % is determined. […]
# Phytophthora cactorum = experiment: Mycelium growth test with Phytophthora cactorum; type: cell-based; details: single active compound
# Fusarium nivale = experiment: Mycelium growth test with Fusarium nivale; type: cell-based; details: 1 ppm in the nutrient medium, single active compound
# Rhizoctonia solani = experiment: Mycelium growth test with Rhizoctonia solani; type: cell-based; details: single active compound
# Phythium ultimum = experiment: Mycelium growth test with Phythium ultimum; type: cell-based; details: single active compound
compound,measurement,setting,value
O=S(=O)(CCC(F)=C(F)F)c1ncc(Cl)s1 [(IC)],Kill rate [%] after 14 days,Meloidogyne incognita; 0.8 ppm,50%
same,Kill rate [%] after 3 days,[1],0%
same,Efficacy [%],Phytophthora cactorum; 50 ppm in the nutrient medium,7%
same,Efficacy [%],Phytophthora cactorum; 100 ppm in the nutrient medium,18% and 23%
same,Efficacy [%],Fusarium nivale,15%
same,Efficacy [%],Rhizoctonia solani; 1 ppm in the nutrient medium,0%
same,Efficacy [%],Rhizoctonia solani; 10 ppm in the nutrient medium,49%
N#Cc1c[nH]cc1-c1cccc2c1OC(F)(F)O2 [fludioxonil],Kill rate [%] after 14 days,Meloidogyne incognita; 20 ppm,0%
CO/N=C(/C1=NOCCO1)c1ccccc1Oc1ncnc(Oc2ccccc2Cl)c1F [fluoxastrobin],Efficacy [%],Phytophthora cactorum; 5 ppm in the nutrient medium,28%
same,Efficacy [%],Rhizoctonia solani; 1 ppm in the nutrient medium,39%
same,Efficacy [%],Phythium ultimum; 10 ppm in the nutrient medium,74%
CC(C)NC(=O)N1CC(=O)N(c2cc(Cl)cc(Cl)c2)C1=O [iprodione],Efficacy [%],Phythium ultimum; 200 ppm in the nutrient medium,9%
O=C(Nc1ccccc1)N(Cc1ccc(Cl)cc1)C1CCCC1 [pencycuron],Efficacy [%],Phytophthora cactorum; 200 ppm in the nutrient medium,0%
CCCN(CCOc1c(Cl)cc(Cl)cc1Cl)C(=O)n1ccnc1 [prochloraz],Efficacy [%],Phytophthora cactorum; 50 ppm in the nutrient medium,30%
OC(Cc1ccccc1Cl)(Cn1nc[nH]c1=S)C1(Cl)CC1 (centres unmarked) [prothioconazole],Kill rate [%] after 14 days,Meloidogyne incognita; 20 ppm,50%
CC(C)(C)C(O)(CCc1ccc(Cl)cc1)Cn1cncn1 (centres unmarked) [tebuconazole],Efficacy [%],Phytophthora cactorum; 100 ppm in the nutrient medium,12%
same,Efficacy [%],Phythium ultimum; 100 ppm in the nutrient medium,72%
CO/N=C(\C(=O)OC)c1ccccc1CO/N=C(\C)c1cccc(C(F)(F)F)c1 [trifloxystrobin],Kill rate [%] after 14 days,Meloidogyne incognita; 20 ppm,0%
same,Kill rate [%] after 3 days,[1],15%
same,Efficacy [%],Phytophthora cactorum; 10 ppm in the nutrient medium,29%
same,Efficacy [%],Rhizoctonia solani; 1 ppm in the nutrient medium,39%
tolylfluanid,Efficacy [%],Phytophthora cactorum; 10 ppm in the nutrient medium,65%
same,Efficacy [%],Phythium ultimum; 10 ppm in the nutrient medium,82%
